Data on one compound can be found in article PMC9974481, “Structure of SpoT reveals evolutionary tuning of catalysis via conformational constraint” (Nature Chemical Biology, 2022).

In experiment [1] the target is T1, SpoTAb (full-length A. baumannii SpoT) (Acinetobacter baumannii, UniProt A0A0D5YCY1).
T1 construct: gene ABUW_0309; full-length, domains HD, pseudo-SYNTH, Core, TGS, HEL, ZFD, RRM; pET28b His-TEV tag cleaved, E. coli BL21(DE3); monomer, theoretical 80 kDa; locus tag belongs to AB5075, expression gene amplified from AB19606; PDB entries not assigned in text (one is the metal-free NTD)
Nature of the experiment: 3H-ppGpp hydrolysis, TLC and scintillation counting. It counts as biochemical. To be noted: 1 mM MnCl2, 5 mM Mg2+, HEPES:Polymix pH 7.5, 37 °C, 10-600 μM substrate; labelled compound.

Experiment [2] concerns the target T1, SpoTAb (full-length A. baumannii SpoT). Briefly: X-ray crystallography, […] Å. The following applies: crystal soaked with 20 mM ppGpp at 4 °C; Mn2+ in hydrolase active site; PDB entry is 7QPR or 7QPS, not assigned in text. The class given is binding.

Take `Nc1nc2c(ncn2[C@@H]2O[C@H](COP(=O)(O)OP(=O)(O)O)[C@@H](OP(=O)(O)OP(=O)(O)O)[C@H]2O)c(=O)[nH]1` [ppGpp]: in experiment [1], the KM entry was “SpoTAb Michaelis constant (KM) and maximum reaction velocity (Vmax) of ^3H-ppGpp hydrolysis were determined”. Further, the “X-ray crystallography, 2.5 Å” value in experiment [2] was “X-ray structure of full-length catalytically active SpoTAb bound to ppGpp”.
